Source: the supplement of paper PMC10733146

Tests used:
Test in all cases: viability relative to DMSO control (fraction); higher = less drug effect (more viable cells)
Settings in all cases: 48 h
[1] = tested on: primary AML patient cells (S085)
Procedure, shortened: (§1)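 The cells were primary mononuclear tumour cells, either fresh or cryopreserved, isolated by Ficoll from blood or bone marrow or derived from processed lymph node. Each well of a 384-well plate received 4 × 10^4 cells onto compounds pre-plated at five concentrations, with one well per concentration. The medium was RPMI-1640 with penicillin/streptomycin, L-glutamine and human serum, and plates stood at 37 °C and 5% CO2 for 48 h. Viability is reported as CellTiter-Glo luminescence relative to the median of 16 inner DMSO wells.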

[2] = tested on: primary FL patient cells (S087)
Procedure, shortened: as §1

[3] = tested on: primary MCL patient cells (S053)
Procedure, shortened: as §1

[4] = tested on: primary AML patient cells (S019)
Procedure, shortened: as §1

[5] = tested on: primary B-PLL patient cells (S016)
Procedure, shortened: as §1

[6] = tested on: primary T-PLL patient cells (S008)
Procedure, shortened: as §1

[7] = tested on: primary AML patient cells (S009)
Procedure, shortened: as §1

[8] = tested on: primary FL patient cells (S022)
Procedure, shortened: as §1

[9] = tested on: primary AML patient cells (S091)
Procedure, shortened: as §1

[10] = tested on: primary AML patient cells (S011)
Procedure, shortened: as §1

[11] = tested on: primary AML patient cells (S025)
Procedure, shortened: as §1

[12] = tested on: primary AML patient cells (S012)
Procedure, shortened: as §1

[13] = tested on: primary MCL patient cells (S041)
Procedure, shortened: as §1

[14] = tested on: primary AML patient cells (S017)
Procedure, shortened: as §1

[15] = tested on: primary BL patient cells (S005)
Procedure, shortened: as §1

[16] = tested on: primary AML patient cells (S021)
Procedure, shortened: as §1

[17] = tested on: primary AML patient cells (S037)
Procedure, shortened: as §1

[18] = tested on: primary AML patient cells (S081)
Procedure, shortened: as §1

[19] = tested on: primary AML patient cells (S002)
Procedure, shortened: as §1

[20] = tested on: primary MCL patient cells (S068)
Procedure, shortened: as §1

Which results are given for `CO[C@H]1C[C@@H]2CC[C@@H](C)[C@@](O)(O2)C(=O)C(=O)N2CCCC[C@H]2C(=O)O[C@H]([C@H](C)C[C@@H]2CC[C@@H](OC(=O)C(C)(CO)CO)[C@H](OC)C2)CC(=O)[C@H](C)/C=C(\C)[C@@H](O)[C@@H](OC)C(=O)[C@H](C)C[C@H](C)/C=C/C=C/C=C/1C` [Temsirolimus]?
viability ([1]; 0.032 µM): 0.852; viability ([1]; 0.16 µM): 0.752; viability ([1]; 0.8 µM): 0.918; viability ([1]; 4 µM): 0.79; viability ([1]; 20 µM): 0.58; viability ([2]; 0.032 µM): 0.833; viability ([2]; 0.16 µM): 0.813; viability ([2]; 0.8 µM): 0.84; viability ([2]; 4 µM): 0.82; viability ([2]; 20 µM): 0.713; viability ([3]; 0.032 µM): 0.884; viability ([3]; 0.16 µM): 0.879; viability ([3]; 0.8 µM): 0.927; viability ([3]; 4 µM): 0.898; viability ([3]; 20 µM): 0.755; viability ([4]; 0.032 µM): 0.909; viability ([4]; 0.16 µM): 0.834; viability ([4]; 0.8 µM): 0.915; viability ([4]; 4 µM): 0.873; viability ([4]; 20 µM): 0.739; viability ([5]; 0.032 µM): 0.618; viability ([5]; 0.16 µM): 0.598; viability ([5]; 0.8 µM): 0.653; viability ([5]; 4 µM): 0.614; viability ([5]; 20 µM): 0.561; viability ([6]; 0.032 µM): 0.982; viability ([6]; 0.16 µM): 0.958; viability ([6]; 0.8 µM): 0.941; viability ([6]; 4 µM): 0.959; viability ([6]; 20 µM): 0.878; viability ([7]; 0.032 µM): 0.92; viability ([7]; 0.16 µM): 0.774; viability ([7]; 0.8 µM): 0.846; viability ([7]; 4 µM): 0.769; viability ([7]; 20 µM): 0.533; viability ([8]; 0.032 µM): 0.962; viability ([8]; 0.16 µM): 0.821; viability ([8]; 0.8 µM): 0.966; viability ([8]; 4 µM): 0.917; viability ([8]; 20 µM): 0.569; viability ([9]; 0.032 µM): 0.697; viability ([9]; 0.16 µM): 0.686; viability ([9]; 0.8 µM): 0.659; viability ([9]; 4 µM): 0.663; viability ([9]; 20 µM): 0.611; viability ([10]; 0.032 µM): 0.88; viability ([10]; 0.16 µM): 0.805; viability ([10]; 0.8 µM): 0.892; viability ([10]; 4 µM): 0.84; viability ([10]; 20 µM): 0.498; viability ([11]; 0.032 µM): 0.914; viability ([11]; 0.16 µM): 0.962; viability ([11]; 0.8 µM): 0.883; viability ([11]; 4 µM): 0.893; viability ([11]; 20 µM): 0.754; viability ([12]; 0.032 µM): 0.814; viability ([12]; 0.16 µM): 0.732; viability ([12]; 0.8 µM): 0.85; viability ([12]; 4 µM): 0.845; viability ([12]; 20 µM): 0.702; viability ([13]; 0.032 µM): 0.853; viability ([13]; 0.16 µM): 0.829; viability ([13]; 0.8 µM): 0.858; viability ([13]; 4 µM): 0.848; viability ([13]; 20 µM): 0.768; viability ([14]; 0.032 µM): 0.724; viability ([14]; 0.16 µM): 0.765; viability ([14]; 0.8 µM): 0.739; viability ([14]; 4 µM): 0.727; viability ([14]; 20 µM): 0.634; viability ([15]; 0.032 µM): 0.775; viability ([15]; 0.16 µM): 0.707; viability ([15]; 0.8 µM): 0.784; viability ([15]; 4 µM): 0.775; viability ([15]; 20 µM): 0.653; viability ([16]; 0.032 µM): 0.761; viability ([16]; 0.16 µM): 0.846; viability ([16]; 0.8 µM): 0.818; viability ([16]; 4 µM): 0.737; viability ([16]; 20 µM): 0.605; viability ([17]; 0.032 µM): 0.966; viability ([17]; 0.16 µM): 0.903; viability ([17]; 0.8 µM): 0.957; viability ([17]; 4 µM): 0.931; viability ([17]; 20 µM): 0.807; viability ([18]; 0.032 µM): 0.885; viability ([18]; 0.16 µM): 0.884; viability ([18]; 0.8 µM): 0.926; viability ([18]; 4 µM): 0.969; viability ([18]; 20 µM): 0.869; viability ([19]; 0.032 µM): 0.755; viability ([19]; 0.16 µM): 0.706; viability ([19]; 0.8 µM): 0.702; viability ([19]; 4 µM): 0.62; viability ([19]; 20 µM): 0.44; viability ([20]; 0.032 µM): 0.604; viability ([20]; 0.16 µM): 0.614; viability ([20]; 0.8 µM): 0.608; viability ([20]; 4 µM): 0.738; viability ([20]; 20 µM): 1.01
